# Laboratory results taken from US20070122503A1, “USE OF EXTRACTS FROM CIMICIFUGA RACEMOSA AND OF TECTORIGENIN AS AN ESTROGEN-TYPE, ORGANOSELECTIVE MEDICAMENT HAVING NO UTEROTROPHIC EFFECT” (BIONORICA ARZNEIMITTEL GMBH, priority 1998, published 2007).
# Key:
# Assay type in all cases: in vivo, rat
# [1] = test system: collagen-1A1, osteocalcin, IGF1 and TGFβ-mRNA, CCO gene in femur head; assay: Subacute test 7 days s.c. (Belamcanda sinensis): mRNA expression in extracts of the femur head; conditions: 7 days daily s.c.
# Description: In extracts of the femur head, the collagen-1A1, osteocalcin, IGF1 and TGFβ-mRNA expression was determined.
# [2] = test system: mRNA for collagen 1 and osteocalcin; assay: Repeated administration of Cimicifuga racemosa: mRNA expression in bone (femur) (RT-PCR); conditions: 7 days s.c., semi-quantitative RT-PCR
# Description: (§4) 14 days following ovarectomy at the earliest, the animals have the respective test substance injected subcutaneously in a dose of 62.5 mg Cimicifuga racemosa/rat or 8 pg estradiol/rat once daily in the morning over a period of 7 days. Both substances were dissolved in 5% cremophor, the control animals only received the vehicle.
# (§5) Following decapitation of the animals, brains, uterus and femur were prepared for mRNA-recovery. […] The expression of the estrogen-regulated genes in the above identified organs was determined by means of semi-quantitative RT-PCR.
# (§6) As another marker for the estrogenic effect, the activation of mRNA of estrogen-inducible proteins was measured. What was measured here was tissue from uterus, from bone tissue (femur) and from the preoptic region of the hypothalamus.
# [3] = test system: ovariectomized Sprague-Dawley rats; assay: Acute experiment, single i.v. injection of Belamcanda sinensis extract: serum LH
# Description: All experiments described below were carried out with ovariectomized Sprague-Dawley rats (=ovx rats) having a weight between 240 and 280 g. The onset of the effect of the estradiol-type effect of Belamcanda sinensis extract occurs very quickly. Even after a single i.v. administration of vehicle, estradiol and Belamcanda sinensis extract to ovx rats, pulsatility ceases both under E2 and under Belamcanda sinensis. […] Cremophor is an emulsifier on the basis of polyethoxylated castor oil derivatives. The results are represented in FIG. 2. […] On the day of the experiment, 6 blood samples were taken at 10-min intervals. Immediately following taking of the 6th sample, 62.5 mg of the Belamcanda sinensis extract or 10 μg 17-β-estradiol (E2) or the solvent (5%) cremophor in isotonic NaCl 1 ml), respectively, were injected intravenously, and blood samples were taken for another 2 hours in 10-minute intervals. 6 hours after the intravenous administration, the animals were decapitated, blood was obtained and the uteri removed, weighed and deep-frozen in liquid nitrogen.
# [4] = test system: mRNA for the estrogen receptor; assay: Repeated administration of Cimicifuga racemosa: mRNA expression in preoptic region of the hypothalamus (RT-PCR); conditions: 7 days s.c.; semi-quantitative RT-PCR
# Description: Both substances were dissolved in 5% cremophor, the control animals only received the vehicle.
# as §5, §6
# [5] = test system: ovariectomized Sprague-Dawley rats; assay: Repeated s.c. administration of Cimicifuga racemosa over 7 days: uterus weight, vagina, LH; conditions: 7 days s.c. once daily
# Description: as §4
# The LH concentration in the blood of the animals was determined by means of RIA.
# [6] = test system: uterine VEGF, IGF1 and C3 genes, CCO gene; assay: Acute experiment, single i.v. injection: uterine gene expression; conditions: six hours after single i.v. injection; vs controls
# Description: All experiments described below were carried out with ovariectomized Sprague-Dawley rats (=ovx rats) having a weight between 240 and 280 g. […] On the day of the experiment, 6 blood samples were taken at 10-min intervals. Immediately following taking of the 6th sample, 62.5 mg of the Belamcanda sinensis extract or 10 μg 17-β-estradiol (E2) or the solvent (5%) cremophor in isotonic NaCl 1 ml), respectively, were injected intravenously, and blood samples were taken for another 2 hours in 10-minute intervals. 6 hours after the intravenous administration, the animals were decapitated, blood was obtained and the uteri removed, weighed and deep-frozen in liquid nitrogen.
# [7] = test system: ovariectomized Sprague-Dawley rats; assay: Subacute test, daily s.c. injection through 7 days (Belamcanda sinensis): body weight, uterus weight, serum LH; conditions: 7 days daily s.c., 62.5 mg extract or 10 μg estradiol
# Description: In the blood samples, LH and the estradiol immunoreactivity were determined.
# [8] = test system: mRNA for IGF1 and complement factor C3; assay: Repeated administration of Cimicifuga racemosa: mRNA expression in uterus (RT-PCR); conditions: 7 days s.c.; semi-quantitative RT-PCR
# Description: as §4, §5
# What was measured here was tissue from uterus, from bone tissue (femur) and from the preoptic region of the hypothalamus.
# [9] = test system: uterine VEGF gene, CCO gene; assay: Subacute test 7 days s.c. (Belamcanda sinensis): gene expression in uterine mRNA extract; conditions: after one-week treatment, 10 μg estradiol s.c. daily
# Description: (§1) All experiments described below were carried out with ovariectomized Sprague-Dawley rats (=ovx rats) having a weight between 240 and 280 g.
# The effects of repeated administration of estradiol, Belamcanda sinensis extract and vehicle on overall weight, uterus weight, hormone level and gene activation of uterus and bone were examined on ovariectomized rats after daily s.c. application through seven days.
# 8 animals each per test group (24 altogether) were daily injected subcutaneously between 8:00 and 9:00 a.m. with 62.5 mg Belamcanda sinensis extract and 10 μg estradiol or the solvent (cremophor 5%, 1 ml), respectively. 6 h after the last application, the animals were decapitated and from every animal the aorta, the uterus and the left femur head were removed, cleaned, and frozen in liquid nitrogen.
# [10] = One-time i.v. administration of tectorigenin: estradiol-type immunoreactivity in blood (E2-RIA); conditions: after 20 min; single i.v. 7 mg tectorigenin; ovx rats
# Description: as §1
# (§2) Following a single administration of tectorigenin, the time development of influence on the LH levels in the blood and the estradiol-type immunoreactivity were determined. The concentration of tectorigenin in the blood of the animals, determined with the aid of E2-RIA, after 20 min corresponds to about 100 pg equivalent estradiol.
# Execution: OVX rats had catheters placed in the vena jugularis externa under ether anesthesia 24 hours before the beginning of the experiment, in accordance with the method of Harms and Ojeda (Harms P G; Ojeda S R: A rapid and simple procedure for chronic cannulation of the rat jugular vein. J. Appl. Physiol. (1974) 36: 391-392). The tube end was positioned in a skin pocket in the neck. In order not to have to touch the animals for obtaining the blood samples, the catheter was prolonged with the aid of a silicone tube. Catheter and tube were rinsed with Ringer solution containing 50 IU heparin/ml. […]
# (§3) The RIAs for LH and Prolaktin are based on antisera, reference and iodisation preparations from NIH (Bethesda, Md., USA). The concentrations of estradiol and of the cross-reactive isoflavones were measured with the aid of an RIA from DPC, Bad Nauheim.
# [11] = test system: ovariectomized Sprague-Dawley rats; assay: One-time i.v. administration of tectorigenin: LH levels in the blood; conditions: single i.v. 7 mg tectorigenin
# Description: as §1, §2
# Execution: OVX rats had catheters placed in the vena jugularis externa under ether anesthesia 24 hours before the beginning of the experiment, in accordance with the method of Harms and Ojeda (Harms P G; Ojeda S R: A rapid and simple procedure for chronic cannulation of the rat jugular vein. J. Appl. Physiol. (1974) 36: 391-392). The tube end was positioned in a skin pocket in the neck. In order not to have to touch the animals for obtaining the blood samples, the catheter was prolonged with the aid of a silicone tube. Catheter and tube were rinsed with Ringer solution containing 50 IU heparin/ml.
# Blood samples of 100 μl each were drawn from the animals at 10-min intervals, and the withdrawn volume replaced with Ringer/heparin solution. After the 6th sample, 1.0 ml of the respective test solution was applied intravenously. As test solutions there were used: 2% cremophor (=vehicle solution), tectorigenin 7 mg/ml vehicle, 17-β-estradiol 10 μg/ml vehicle. Blood was taken at ten-minute intervals through additional 140 min.
# The blood samples thus obtained were filled into a 0.5 ml Eppendorf reaction vessel containing 10 μl heparin-Losung (5000 IU/ml, Liquemin), centrifuged for 10 min at 10 000*g, and the plasma stored at −20° C. until performance of the radioimmunoassays.
# as §3
compound,measurement,setting,value
"C[C@]12CC[C@@H]3c4ccc(O)cc4CC[C@H]3[C@@H]1CC[C@@H]2O [E2, 17-β-estradiol]",IGF1 mRNA expression in femur head,[1],significantly inhibited
same,TGFβ mRNA expression in femur head,[1],significantly inhibited
same,collagen-1A1 mRNA expression in femur head,[1],significantly inhibited
same,constitutive CCO gene expression in femur head,[1],without having an influence
same,osteocalcin mRNA expression in femur head,[1],significantly inhibited
same,expression of the mRNA for osteocalcin in bone tissue,[2],"reduces, in analogy with estradiol"
same,expression of the mRNA for the bone-specific collagen 1 in bone tissue,[2],"reduces, in analogy with estradiol"
same,LH pulsatility,"[3]; 62.5 mg extract or 10 μg E2, ovx rats",ceases
same,serum LH levels,"[3]; 62.5 mg extract or 10 μg E2, prior to and 2 hours after injection, vs previous values and cremophor controls",significant inhibitions
same,expression of the mRNA for the estrogen receptor in the preoptic region of the hypothalamus,[4],stimulate
same,"LH concentrations in the blood, mean values","[5]; 62.5 mg Cimicifuga racemosa/rat or 8 pg estradiol/rat, n=8, RIA",7.83 ng/mL
same,"Uterus weights (wet), mean values","[5]; 62.5 mg Cimicifuga racemosa/rat or 8 pg estradiol/rat, n=8, ovx rats",702.1 mg
same,LH levels compared with vehicle (in words),[5]; ovx rats,lowered significantly
same,hornification of the vaginal epithelium tissue,[5]; ovx rats,quite contrary
same,uterus weight compared with vehicle (in words),[5]; ovx rats,more than three times the weight
same,expression of the uterine C3 gene,[6],clear increase
same,expression of the uterine IGF1 gene,[6],clear increase
same,expression of the uterine VEGF gene,[6],clear increase
same,average body weights,[7]; vs cremophor,significantly lighter
same,uterus weights,[7]; vs cremophor,more than tripled
same,serum LH levels,[7]; vs cremophor controls,more marked
same,mRNA for IGF1 in the uterus,[8],increases
same,mRNA for complement factor C3 in the uterus,[8],increases
same,gene expression of VEGF in uterine mRNA extract,[9],149 % of the control value
COc1c(O)cc2occ(-c3ccc(O)cc3)c(=O)c2c1O [tectorigenin],"concentration of tectorigenin in the blood, determined with E2-RIA",[10],about 100 pg equivalent estradiol
same,kinetics of the LH reduction up to 60 min following i.v. administration,[11]; compared with 10 μg 17-β-estradiol,precisely correspond to the one of estradiol
same,LH levels in the blood,[11]; ovx rats,rapid LH reduction
same,course of LH after 60 min following i.v. administration,[11]; sampling to 140 min,do not result in further reduction but slowly increases again
